Experimental data: patent US20250009697A1, “COMPOSITION FOR INCREASING AMOUNT OF FOOD INGESTED AND/OR IMPROVING ANOREXIA, AND COMPOSITION FOR ACTIVATING TRANSIENT RECEPTOR POTENTIAL ANKYRIN 1” (HOUSE FOODS GROUP INC., priority 2021, published 2025)

What was measured:
Assay type in all cases: cell-based
Human TRPA1 (hTRPA1) [1] = target: T1, Human TRPA1 (hTRPA1) (Homo sapiens, UniProt O75762); experiment: TRPA1 Activation Test 1: intracellular Ca2+ imaging assay 1-1 to 1-3, hTRPA1 stably expressing cell line; conditions: test sample 30 μM; for TRPA1 activation rate, With antagonist: A-967079 1 μM
T1 construct: expressed in transfected cells
Procedure: (§1) DNAs encoding genes described in the following Table 2 were inserted into pcDNA 5/TO vector (Invitrogen) to prepare various expression vectors.
(§2) These expression vectors were transfected into T-REx™_293 cells (Invitrogen) by a conventional method using Lipofectamine LTX (Invitrogen). Then, various transfectants were cultured and cloned by a conventional method using Dulbecco's Modified Eagle Medium (DMEM, Nacalai Tesque Inc.), containing 10% fetal bovine serum (FBS, Cytiva), […] of hygromycin B, and 5 μg/mL of blasticidin S, as a drug selection medium to obtain a hTRPA1 stably expressing cell line, a hTRPV1 stably expressing cell line, and a hTRPM8 stably expressing cell line.
A hTRPA1 stably expressing cell line in which expression of hTRPA1 had been induced in advance by a conventional method was prepared in a 96 well clear bottom plate (black), and a hTRPA1 activating action of the purified oxylipin or the R2 fraction (both were assumed to contain a compound having a molecular weight of 294) obtained in the above item 1 was tested. Specifically, after each well was washed with PBS, 50 μL of an assay buffer (Hanks' balanced salt solution containing no calcium ions or magnesium ions that contained 1 mM of CaCl2 dihydrate, 20 mM of HEPES, and 0.1% BSA) containing calcium fluorescent indicator Calbryte™ 520 AM (produced by AAT Bioquest) in a final concentration of 4 μM was added, followed by incubating at 33° C. for 45 minutes. After washing with the assay buffer, 100 μL of the assay buffer was added to each well. This plate was set to FlexStation 3 (Molecular Devices, LLC), and a fluorescence intensity (excitation wavelength 490 nm, fluorescence wavelength 525 nm) at 31° C. was measured every two seconds, and 30 seconds after the start of the measurement, 100 μL of an assay buffer containing a test sample which was prepared to have a certain final concentration or DMSO was added. Then, a well in which an assay buffer containing ionomycin (having a final concentration of 10 μM after the addition) instead of the test samples was added was also prepared as a reference for fluorescence intensity.
(§3) The measurement was continued from the start of the measurement up to 120 seconds, and the TRPA1 activation ability of the test samples was calculated in accordance with the following formula.
(§4) Activation rate (%)=(Fmax[s]−F0)/(Fmax[i]−F0)×100 • Fmax[s]: The maximum value of the fluorescence intensity when the test sample or the positive control was added • F0: The average value of the fluorescence intensity for 20 seconds after the start of the measurement (base line) • Fmax[i]: The maximum value of the fluorescence intensity when ionomycin was added
The TRPA1 activation ability was measured in the same manner as in the above (2) except that the R2 fraction or allyl isothiocyanate (AITC) was used as a test sample and the test was conducted with A-967079 (1 μM), which is a TRPA1-specific antagonist, or without A-967079. In addition, regarding the R2 fraction, the hTRPV1 stably expressing cell line or the hTRPM8 stably expressing cell line was used instead of the hTRPA1 stably expressing cell line to conduct the same test. Note that as positive controls, capsaicin was used for the hTRPV1 stably expressing cell line and icilin was used for the hTRPM8 stably expressing cell line.
The TRPA1 activation ability was measured in the same manner as in the above (2) except that each isolated compound or allyl isothiocyanate (AITC) was used as a test sample and the test was conducted with A-967079 (1 μM), which was a TRPA1-specific antagonist, or without A-967079.

Human TRPA1 (hTRPA1) [2] = target: T1, Human TRPA1 (hTRPA1); experiment: TRPA1 Activation Test 2: intracellular Ca2+ imaging assay 2-1 to 2-3, hTRPA1 stably expressing cell line; conditions: test sample 30 μM
Procedure: as §1, §2
(§5) A hTRPA1 stably expressing cell line in which expression of hTRPA1 had been induced in advance by a conventional method was prepared in a 96 well clear bottom plate, and the hTRPA1 activating action of rhein (produced by Tokyo Chemical Industry Co., Ltd.) was tested. Specifically, after each well was washed with PBS, 50 μL of an assay buffer (Hanks' balanced salt solution containing no calcium ion or magnesium ion that contained 1 mM of CaCl2 dihydrate, 20 mM of HEPES, and 0.1% BSA) containing calcium fluorescent indicator Calbryte™ 520 AM (produced by AAT Bioquest) in a final concentration of 4 μM was added, followed by incubating at 33° C. for 45 minutes. After washing with the assay buffer, 100 μL of the assay buffer was added to each well. This plate was set to FlexStation 3 (Molecular Devices, LLC), and a fluorescence intensity (excitation wavelength 490 nm, fluorescence wavelength 525 nm) at 31° C. was measured every two seconds, and 30 seconds after the start of the measurement, 100 μL of an assay buffer containing a test sample (allyl isothiocyanate (AITC) of positive control or rhein) which was prepared to have a certain final concentration or DMSO was added. Then, a well in which an assay buffer containing ionomycin (having a final concentration of 10 μM after the addition) instead of the test samples was added was also prepared as a reference for fluorescence intensity.
as §3
as §4, with “or” for “or the”
(§6) The TRPA1 activation ability of each test sample was measured in the same manner as in the above (2) except the test was conducted with A-967079 (1 μM), which is a TRPA1-specific antagonist, or without A-967079. In addition, intracellular Ca^2+ imaging assay was conducted in the same manner as in the above (2) except that a hTRPV1 stably expressing cell line, a hTRPM8 stably expressing cell line, or a Mock cell was used instead of the hTRPA1 stably expressing cell line. Note that capsaicin was used as positive control for the hTRPV1 stably expressing cell line, and icilin was used as positive control for the hTRPM8 stably expressing cell line.
A TRPA1 activation ability was measured in the same manner as in the above (2) by using, as a test sample, rhein or compounds described in the following Table 10, which had anthraquinone structures similar to rhein, at a concentration of 200 μM of the test sample.

Mock cell = experiment: TRPA1 Activation Test 2: intracellular Ca2+ imaging assay 2-2, Mock cell; conditions: test sample 30 μM; Table 9
Procedure: as §5, §3
Activation rate (%)=(Fmax[s]−F0)/(Fmax[i]−F0)×100 • Fmax[s]: The maximum value of the fluorescence intensity when the test sample or positive control was added • F0: The average value of the fluorescence intensity for 20 seconds after the start of the measurement (base line) • Fmax[i]: The maximum value of the fluorescence intensity when ionomycin was added […]

Human TRPV1 (hTRPV1) [3] = target: T2, Human TRPV1 (hTRPV1) (Homo sapiens, UniProt Q8NER1); experiment: TRPA1 Activation Test 1: intracellular Ca2+ imaging assay 1-2, hTRPV1 stably expressing cell line; conditions: test sample 1 μM; Table 5
T2 construct: expressed in transfected cells
Procedure: as §1, §2
After washing with the assay buffer, 100 μL of the assay buffer was added to each well. […] Then, a well in which an assay buffer containing ionomycin (having a final concentration of 10 μM after the addition) instead of the test samples was added was also prepared as a reference for fluorescence intensity.
as §3

Human TRPV1 (hTRPV1) [4] = target: T2, Human TRPV1 (hTRPV1); experiment: TRPA1 Activation Test 2: intracellular Ca2+ imaging assay 2-2, hTRPV1 stably expressing cell line; conditions: test sample 1 μM; Table 9
Procedure: as §1, §2
as §5, with “This plate was set to FlexStation 3 (Molecular Devices, LLC), and a fluorescence intensity (excitation wavelength 490 nm, fluorescence wavelength 525 nm) at 31° C. was measured every two seconds, and 30 seconds after the start of the measurement, 100 μL of an assay buffer containing a test sample (allyl isothiocyanate (AITC) of positive control or rhein) which was prepared to have a certain final concentration or DMSO was added.” left out
as §3
as §4, with “or” for “or the”
as §6, with “Note that capsaicin was used as positive control for the hTRPV1 stably expressing cell line, and icilin was used as positive control for the hTRPM8 stably expressing cell line.” left out

Human TRPM8 (hTRPM8) [5] = target: T3, Human TRPM8 (hTRPM8) (Homo sapiens, UniProt Q7Z2W7); experiment: TRPA1 Activation Test 1: intracellular Ca2+ imaging assay 1-2, hTRPM8 stably expressing cell line; conditions: test sample 5 μM; Table 5
T3 construct: expressed in transfected cells
Procedure: as §1, §2
A hTRPA1 stably expressing cell line in which expression of hTRPA1 had been induced in advance by a conventional method was prepared in a 96 well clear bottom plate (black), and a hTRPA1 activating action of the purified oxylipin or the R2 fraction (both were assumed to contain a compound having a molecular weight of 294) obtained in the above item 1 was tested. […] Then, a well in which an assay buffer containing ionomycin (having a final concentration of 10 μM after the addition) instead of the test samples was added was also prepared as a reference for fluorescence intensity. […]

Human TRPM8 (hTRPM8) [6] = target: T3, Human TRPM8 (hTRPM8); experiment: TRPA1 Activation Test 2: intracellular Ca2+ imaging assay 2-2, hTRPM8 stably expressing cell line; conditions: test sample 5 μM; Table 9
Procedure: as §1, §2
as §5, with “This plate was set to FlexStation 3 (Molecular Devices, LLC), and a fluorescence intensity (excitation wavelength 490 nm, fluorescence wavelength 525 nm) at 31° C. was measured every two seconds, and 30 seconds after the start of the measurement, 100 μL of an assay buffer containing a test sample (allyl isothiocyanate (AITC) of positive control or rhein) which was prepared to have a certain final concentration or DMSO was added.” left out
as §3
as §4, with “or” for “or the”
as §6, with “Note that capsaicin was used as positive control for the hTRPV1 stably expressing cell line, and icilin was used as positive control for the hTRPM8 stably expressing cell line.” left out

T1 sequence (O75762 whole entry): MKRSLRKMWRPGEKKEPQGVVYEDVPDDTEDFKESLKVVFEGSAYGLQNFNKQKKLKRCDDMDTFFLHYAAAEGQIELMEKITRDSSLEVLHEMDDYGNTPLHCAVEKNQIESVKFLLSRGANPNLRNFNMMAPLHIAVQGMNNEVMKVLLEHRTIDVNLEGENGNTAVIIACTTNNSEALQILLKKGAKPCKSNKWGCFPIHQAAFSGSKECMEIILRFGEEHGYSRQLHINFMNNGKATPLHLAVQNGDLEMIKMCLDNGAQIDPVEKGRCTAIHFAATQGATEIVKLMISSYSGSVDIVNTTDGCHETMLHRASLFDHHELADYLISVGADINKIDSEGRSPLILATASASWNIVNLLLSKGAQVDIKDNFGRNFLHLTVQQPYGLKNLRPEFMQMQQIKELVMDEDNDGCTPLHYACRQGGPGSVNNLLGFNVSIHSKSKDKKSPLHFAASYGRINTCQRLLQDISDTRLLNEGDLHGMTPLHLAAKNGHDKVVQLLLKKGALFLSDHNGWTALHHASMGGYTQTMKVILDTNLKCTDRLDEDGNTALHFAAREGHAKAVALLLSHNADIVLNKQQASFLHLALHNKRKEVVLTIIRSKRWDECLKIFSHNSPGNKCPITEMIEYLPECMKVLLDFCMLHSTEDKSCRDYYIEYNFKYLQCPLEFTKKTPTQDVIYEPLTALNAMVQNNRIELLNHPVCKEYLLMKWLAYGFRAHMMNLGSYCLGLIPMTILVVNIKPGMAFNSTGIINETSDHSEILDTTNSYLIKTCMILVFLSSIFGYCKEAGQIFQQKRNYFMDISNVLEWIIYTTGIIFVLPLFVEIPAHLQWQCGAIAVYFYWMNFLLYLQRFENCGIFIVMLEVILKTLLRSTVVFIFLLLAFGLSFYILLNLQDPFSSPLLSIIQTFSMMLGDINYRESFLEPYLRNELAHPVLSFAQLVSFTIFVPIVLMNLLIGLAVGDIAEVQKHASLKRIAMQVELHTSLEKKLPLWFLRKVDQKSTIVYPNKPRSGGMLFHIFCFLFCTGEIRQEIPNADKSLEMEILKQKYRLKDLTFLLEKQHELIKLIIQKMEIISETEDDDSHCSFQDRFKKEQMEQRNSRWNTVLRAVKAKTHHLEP
T2 sequence (Q8NER1 whole entry): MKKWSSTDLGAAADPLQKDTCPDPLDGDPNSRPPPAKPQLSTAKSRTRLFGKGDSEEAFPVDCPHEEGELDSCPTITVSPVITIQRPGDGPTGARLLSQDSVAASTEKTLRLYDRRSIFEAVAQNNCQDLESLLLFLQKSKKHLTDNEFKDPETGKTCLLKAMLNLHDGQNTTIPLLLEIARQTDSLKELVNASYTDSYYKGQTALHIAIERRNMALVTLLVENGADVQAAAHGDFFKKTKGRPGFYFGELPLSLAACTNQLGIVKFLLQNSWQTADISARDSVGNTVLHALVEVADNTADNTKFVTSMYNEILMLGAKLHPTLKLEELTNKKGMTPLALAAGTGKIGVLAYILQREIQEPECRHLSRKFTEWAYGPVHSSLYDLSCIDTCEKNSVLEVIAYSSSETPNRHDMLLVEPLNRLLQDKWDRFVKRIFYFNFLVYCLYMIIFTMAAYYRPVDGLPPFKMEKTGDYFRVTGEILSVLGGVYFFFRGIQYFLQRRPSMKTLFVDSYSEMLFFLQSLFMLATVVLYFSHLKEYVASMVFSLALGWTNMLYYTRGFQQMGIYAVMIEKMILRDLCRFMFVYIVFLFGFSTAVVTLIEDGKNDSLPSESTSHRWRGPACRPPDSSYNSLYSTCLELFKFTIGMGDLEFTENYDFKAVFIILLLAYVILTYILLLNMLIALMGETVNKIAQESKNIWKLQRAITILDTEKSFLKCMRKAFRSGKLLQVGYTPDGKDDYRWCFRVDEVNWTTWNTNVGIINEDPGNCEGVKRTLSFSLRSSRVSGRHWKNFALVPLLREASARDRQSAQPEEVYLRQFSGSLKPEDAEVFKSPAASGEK
T3 sequence (Q7Z2W7 whole entry): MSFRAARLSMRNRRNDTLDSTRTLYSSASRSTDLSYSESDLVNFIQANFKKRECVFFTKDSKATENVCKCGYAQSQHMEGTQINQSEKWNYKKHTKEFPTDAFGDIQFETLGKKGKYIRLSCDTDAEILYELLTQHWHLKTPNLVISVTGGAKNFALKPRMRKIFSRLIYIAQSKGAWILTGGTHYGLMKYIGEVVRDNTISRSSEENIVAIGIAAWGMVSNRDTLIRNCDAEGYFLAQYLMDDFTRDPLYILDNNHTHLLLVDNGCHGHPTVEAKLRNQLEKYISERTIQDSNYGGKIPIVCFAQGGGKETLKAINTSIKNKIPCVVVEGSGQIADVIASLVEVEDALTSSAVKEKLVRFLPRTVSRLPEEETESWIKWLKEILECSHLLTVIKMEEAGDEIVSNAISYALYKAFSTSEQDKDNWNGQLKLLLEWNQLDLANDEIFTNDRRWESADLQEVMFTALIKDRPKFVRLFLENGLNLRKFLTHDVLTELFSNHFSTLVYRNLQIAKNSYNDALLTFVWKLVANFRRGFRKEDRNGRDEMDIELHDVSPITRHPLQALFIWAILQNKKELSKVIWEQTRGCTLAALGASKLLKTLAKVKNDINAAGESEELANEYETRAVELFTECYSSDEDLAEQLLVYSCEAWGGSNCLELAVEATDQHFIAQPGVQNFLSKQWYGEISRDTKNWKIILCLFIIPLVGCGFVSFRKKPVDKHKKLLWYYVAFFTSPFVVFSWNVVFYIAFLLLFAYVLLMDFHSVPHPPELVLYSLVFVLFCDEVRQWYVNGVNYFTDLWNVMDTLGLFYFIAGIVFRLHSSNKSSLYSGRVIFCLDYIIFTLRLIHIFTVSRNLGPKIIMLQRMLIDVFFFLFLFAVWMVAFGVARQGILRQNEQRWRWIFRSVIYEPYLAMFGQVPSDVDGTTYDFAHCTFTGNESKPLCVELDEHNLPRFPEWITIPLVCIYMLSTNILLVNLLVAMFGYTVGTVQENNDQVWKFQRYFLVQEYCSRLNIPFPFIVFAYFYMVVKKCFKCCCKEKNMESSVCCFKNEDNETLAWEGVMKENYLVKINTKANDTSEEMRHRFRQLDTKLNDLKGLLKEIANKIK

C=CCN=C=S [AITC, allyl isothiocyanate, reference compound]
TRPA1 activation rate, With antagonist (Human TRPA1 (hTRPA1) [1]; Table 4): 1.30 ± 0.639% | TRPA1 activation rate, With antagonist (Human TRPA1 (hTRPA1) [1]; Table 6): 1.44 ± 0.163% | TRPA1 activation rate, Without antagonist (Human TRPA1 (hTRPA1) [1]; Table 4): 160 ± 2.58% | TRPA1 activation rate, Without antagonist (Human TRPA1 (hTRPA1) [1]; Table 6): 128 ± 2.99% | TRPA1 activation rate, With antagonist (Human TRPA1 (hTRPA1) [2]; A-967079 1 μM, Table 8): 15.7 ± 7.81 % | TRPA1 activation rate, With antagonist (Human TRPA1 (hTRPA1) [2]; A-967079, Table 11): 0.811 ± 0.0386 % | TRPA1 activation rate (Human TRPA1 (hTRPA1) [2]; Table 7): 101 ± 3.66% | TRPA1 activation rate, Without antagonist (Human TRPA1 (hTRPA1) [2]; Table 8): 104 ± 6.10% | TRPA1 activation rate, Without antagonist (Human TRPA1 (hTRPA1) [2]; Table 11): 115 ± 6.15% | Activation rate, Mock (Mock cell): 6.40 ± 0.143%

COc1cc(CNC(=O)CCCC/C=C/C(C)C)ccc1O [Capsaicin, capsaicin, reference compound]
TRPV1 activation rate (Human TRPV1 (hTRPV1) [3]): 113 ± 1.16% | TRPV1 activation rate (Human TRPV1 (hTRPV1) [4]): 96.3 ± 3.24%

O=C1NC(c2cccc([N+](=O)[O-])c2)=CCN1c1ccccc1O [Icilin, icilin, reference compound]
TRPM8 activation rate (Human TRPM8 (hTRPM8) [5]): 79.8 ± 1.71% | TRPM8 activation rate (Human TRPM8 (hTRPM8) [6]): 104 ± 2.19^ %
